Reference: patent US7183299B2 (priority 2001, dated 2007)

Key:
[1] = test system: downy mildew (Plasmopara viticola) on grape; settings: in vivo
late blight on tomato = assay type: in vivo, Plasmopara viticola; settings: tomato (Hofuku), therapeutic effect, sprayed after inoculation, active ingredient 100 ppm, disease severity 7 days after inoculation

SMILES | Control value (%) [1] [%] | Control value (%) (late blight on tomato)
CCCC(=O)Nc1cccc(CON=C(c2ccccc2)c2nnnn2C)n1 [(1)-6] | 70 | 90
CC(C)C(=O)Nc1cccc(CON=C(c2ccccc2)c2nnnn2C)n1 [(1)-7] | 100 | 100
CCCCC(=O)Nc1cccc(CON=C(c2ccccc2)c2nnnn2C)n1 [(1)-8] | 70 | 90
CCCCCC(=O)Nc1cccc(CON=C(c2ccccc2)c2nnnn2C)n1 [(1)-12, (Z)-(1-methyltetrazol-5-yl)phenylmethanoneoxime 0-(6-(hexanoylamino)pyridin-2-yl)methyloxime] | 100 | 100
Cn1nnnc1C(=NOCc1cccc(NC(=O)CC(C)(C)C)n1)c1ccccc1 [(1)-16] | 70 | 100
CCCCCCC(=O)Nc1cccc(CON=C(c2ccccc2)c2nnnn2C)n1 [(1)-18] | 100 | 100
Cn1nnnc1C(=NOCc1cccc(NC(=O)C2CC2)n1)c1ccccc1 [(1)-21] | 70 | 90
CC(C)C(=O)Nc1nc(CON=C(c2ccccc2)c2nnnn2C)cs1 [(2)-7] | 90 | 100
Cn1nnnc1C(=NOCc1csc(NC(=O)C(C)(C)C)n1)c1ccccc1 [(2)-11] | 100 | 100
CCCCCC(=O)Nc1nc(CON=C(c2ccccc2)c2nnnn2C)cs1 [(2)-12] | 90 | 100
Cn1nnnc1C(=NOCc1csc(NC(=O)CC(C)(C)C)n1)c1ccccc1 [(2)-16] | 90 | 100
CCOC(=O)Nc1cccc(CON=C(c2ccccc2)c2nnnn2C)n1 [(3)-2] | 70 | 90
CCCOC(=O)Nc1cccc(CON=C(c2ccccc2)c2nnnn2C)n1 [(3)-3] | 90 | 100
CC(C)OC(=O)Nc1cccc(CON=C(c2ccccc2)c2nnnn2C)n1 [(3)-4] | 90 | 100
CCCCOC(=O)Nc1cccc(CON=C(c2ccccc2)c2nnnn2C)n1 [(3)-5] | 100 | 100
Cn1nnnc1C(=NOCc1cccc(NC(=O)OC(C)(C)C)n1)c1ccccc1 [(3)-8] | 100 | 100
CCCCCOC(=O)Nc1cccc(CON=C(c2ccccc2)c2nnnn2C)n1 [(3)-9] | 100 | 100
CCCCCCOC(=O)Nc1cccc(CON=C(c2ccccc2)c2nnnn2C)n1 [(3)-15] | 100 | 100
CCCCCCCOC(=O)Nc1cccc(CON=C(c2ccccc2)c2nnnn2C)n1 [(3)-16] | 100 | 100
Cn1nnnc1C(=NOCc1cccc(NC(=O)OCc2ccccc2)n1)c1ccccc1 [(3)-18] | 100 | 100
CCC(C)(C)OC(=O)Nc1cccc(CON=C(c2ccccc2)c2nnnn2C)n1 [(3)-21] | 70 | 100
Cn1nnnc1C(=NOCc1cccc(NC(=O)OC2CCCC2)n1)c1ccccc1 [(3)-22] | 100 | 100
Cn1nnnc1C(=NOCc1cccc(NC(=O)OC2CCCCC2)n1)c1ccccc1 [(3)-23] | 80 | 100
CCCCCCOC(=O)Nc1nc(CON=C(c2ccccc2)c2nnnn2C)cs1 [(4)-15] | 70 | 80
Cn1nnnc1C(=NOCc1csc(NC(=O)OCc2ccccc2)n1)c1ccccc1 [(4)-18] | 70 | 90
Cn1nnnc1C(=NOCc1cccc(NC(=O)Cc2ccccc2)n1)c1ccccc1 [(5)-12] | 100 | 100
Cn1nnnc1C(=NOCc1cccc(NC(=O)c2ccccc2)n1)c1ccccc1 [(5)-14] | 90 | 100
